pIC50: −log10 of the molar value.

For the first assay, the target named is T1, His-TEV-AtPPO1 ΔcTP V002 (SEQ ID NO: 373) (Arabidopsis thaliana, UniProt P55826, L479M/S305L/Y426V).
T1 construct: with cTPs removed; made in house; host or cells: E. coli BL21 (DE3), His GraviTrap, partially purified
T1 sequence (P55826 with tags, fused parts or gaps S305L/Y426V/L479M): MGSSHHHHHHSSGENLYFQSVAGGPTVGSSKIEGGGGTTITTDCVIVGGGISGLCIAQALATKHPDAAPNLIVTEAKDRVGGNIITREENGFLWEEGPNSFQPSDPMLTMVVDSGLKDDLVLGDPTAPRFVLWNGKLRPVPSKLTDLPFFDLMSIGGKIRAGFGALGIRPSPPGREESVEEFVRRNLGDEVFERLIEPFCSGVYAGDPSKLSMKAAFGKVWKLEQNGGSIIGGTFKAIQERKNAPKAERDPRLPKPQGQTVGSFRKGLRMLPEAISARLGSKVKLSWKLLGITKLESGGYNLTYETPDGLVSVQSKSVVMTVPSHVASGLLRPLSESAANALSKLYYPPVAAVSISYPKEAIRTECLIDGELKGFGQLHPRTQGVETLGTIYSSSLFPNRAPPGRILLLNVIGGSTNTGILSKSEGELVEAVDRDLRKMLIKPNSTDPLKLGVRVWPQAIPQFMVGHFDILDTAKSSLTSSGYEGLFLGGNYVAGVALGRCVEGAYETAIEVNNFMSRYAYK
Put plainly: PPO fluorescence IC50 assay, partially purified enzyme. The format is biochemical.
Details: not given
The text has this: A pET24 plasmid containing a DNA sequence encoding variants of AtPPO1 derived from Arabidopsis thaliana with cTPs removed and both a 6×His tag and TEV protease cleavage tag added at the N-terminus, codon-optimised for expression in E. coli, and under control of a T7 promoter, was synthesised by Twist Bioscience. The following variants were synthesised: WT AtPPO1 (SEQ ID NO: 370), AtPPO1 L479M (SEQ ID NO: 371), AtPPO1 L479N (SEQ ID NO: 372), AtPPO1 S305L Y426V (SEQ ID NO: 374) and AtPPO1 S305L Y426V L479M (SEQ ID NO: 373). This plasmid was expressed in E. coli BL21 (DE3) with 50 μg/mL kanamycin selection. 10 mL of overnight cultures grown at 37° C. were used to inoculate 1 L AIM (AIM-Terrific Broth Base including Trace elements, Formedium) in 2 L shake flasks. Cultures were grown at 37° C., 200 rpm for 3 hours and then overnight at 26° C. Cells were harvested centrifugation. 5-15 g of cell pellet was lysed in and resuspended in ratio of 1:1.5 in lysis buffer (20 mM Tris pH8, 500 mM sodium chloride, 10% glycerol, 1× complete Protease EDTA-free Inhibitor Tablet (Roche), 10 mM imidazole). The resuspension was sonicated at 75% using 10 cycles of 30 seconds, 40 seconds off. After sonication Triton X-100 was added to the lysates at a final concentration of 0.5%. The lysates were centrifuged at 20,000 rpm for 25 min at 4° C. Cleared lysates were loaded on His GraviTrap (Cytiva) columns, washed with 20 mL of lysis buffer and eluted in elution buffer (20 mM Tris pH8, 500 mM sodium chloride, 10% glycerol, 200 mM imidazole, 0.03% (v/v) Triton X-100). The eluate was desalted on a PD10 column and 2.5-3.2 mL was collected. Protein concentration was measured and calculated using the absorbance at 280 nm. Extracts were diluted 1 in 4 and 10 uL was analysed by SDS PAGE.
Partially purified Protoporphyrinogen Oxidase enzymes were assayed for activity using fluorescence adapted from the method of Shepherd & Dailey (Anal Biochem. 2005 344(1) 115-121). The assay was performed in black 384 well plates with a clear bottom and the total volume of the reaction mixture was 91 ul. The final assay mixture contained 100 mM K2HPO4 pH7.2, 1 mM Na2EDTA, 5 mM DTT, 20% glycerol (v/v), 0.05% Tween 20 (v/v), 1.1% DMSO (v/v), 1 uM protoporphyrinogen IX and 1.5 nM enzyme. Compounds were dissolved in DMSO at 1 mM and a 4-fold serial dilution carried out to give 8 rates. 1 ul was added to the assay mixture. This gave final compound concentrations of 11, 2.7, 0.69, 0.17, 0.04, 0.01, 0.002, 0.0007 uM. Enzyme and inhibitor were preincubated for 5 minutes prior to starting the reaction with the addition of the substrate. […] IC50s were calculated using GraphPad Prism 7.05 nonlinear regression (Table 6). Each compound was tested in duplicate.
The compound `C#CCOc1cc(-n2nc3n(c2=O)CCCC3)c(Cl)cc1Cl` [Azafenadin] had a pIC50 of 6.83. `C=CCOC(=O)C(C)(C)OC(=O)c1cc(-n2c(=O)cc(C(F)(F)F)n(C)c2=O)ccc1Cl` [Butafenacil, butafenacil]: the pIC50 was 7.90. As for `C#CCN1C(=O)COc2cc(F)c(N3C(=O)C4=C(CCCC4)C3=O)cc21` [Flumioxazin, flumioxazin], the pIC50 was 6.73.

`CS(=O)(=O)NC(=O)c1cc(Oc2ccc(C(F)(F)F)cc2Cl)ccc1[N+](=O)[O-]` [Fomesafen, fomesafen] had a pIC50 of 9.30. On to `CCOC(=O)COc1ncccc1Oc1cc(-n2c(=O)cc(C(F)(F)F)n(C)c2=O)c(F)cc1Cl` [Herbicide A, epyrifenacil], for which the negative-log IC50 (pIC50) was 6.35. In turn, `C#CCN1C(=O)C(F)(F)Oc2cc(F)c(-n3c(=O)n(C)c(=S)n(C)c3=O)cc21` [Herbicide B, trifludimoxazin] had a negative-log IC50 (pIC50) of 8.68. For the compound `CCOC(=O)C1(C)CC(c2cc(-n3c(=O)cc(C(F)(F)F)n(C)c3=O)c(F)cc2Cl)=NO1` (stereo not shown) [Herbicide C, 3-(2-chloro-4-fluoro-5-(3-methyl-2,6-dioxo-4-trifluoromethyl-3,6-dihydropyrimidin-1(2H)-yl)phenyl)-5-methyl-4,5-dihydroisoxazole-5-carboxylic acid ethyl ester], the pIC50 was 6.92. Regarding `CCOC(=O)[C@]1(C)CC(c2cc(-n3c(=O)n(C)c(=S)n(C)c3=O)c(F)cc2Cl)=NO1` [Herbicide D, ethyl (5S)-3-[2-chloro-5-(3,5-dimethyl-2,6-dioxo-4-thioxo-1,3,5-triazinan-1-yl)-4-fluoro-phenyl]-5-methyl-4H-isoxazole-5-carboxylate], the pIC50 was 6.47.

For the compound `CC(C)N(C)S(=O)(=O)NC(=O)c1cc(-n2c(=O)cc(C(F)(F)F)n(C)c2=O)c(F)cc1Cl` [Herbicide E, saflufenacil], the negative-log IC50 (pIC50) is 6.00. Same read-out and setting: as for `CC(C)Oc1cc(-n2nc(C(C)(C)C)oc2=O)c(Cl)cc1Cl` [Oxadiazaon], the figure is 5.25; as for `C#CCN(C)c1c(C#N)cnn1-c1nn2c(c1Cl)CCCC2` [Pyraclonil], 5.26. `CCOC(=O)COc1cc(-c2nn(C)c(OC(F)F)c2Cl)c(F)cc1Cl` [Pyraflufen-ethyl, pyraflufen-ethyl]: the pIC50 is 7.62.

Staying with this assay, now noted: role: inhibitor; 1 uM protoporphyrinogen IX; <1.0 is below detection limit of assay.
As to `COC(=O)C(C)ON=Cc1cc(-n2c(=O)cc(C(F)(F)F)n(C)c2=O)c(F)cc1Cl` (stereo not shown) [Flufenoximacil, flufenoximacil], the negative-log IC50 (pIC50) was 6.06.

Values taken from patent publication US20260297542A1, “HERBICIDE RESISTANT PLANTS” (SYNGENTA CROP PROTECTION AG, priority 2023, published 2026).
